Literature values in patent US5426034A, “Process for the production and use of a stable 6-phosphogluconolactonase” (Boehringer Mannheim GmbH, priority 1990, dated 1995).

Test system: 6-phosphogluconolactonase (phosphogluconolactonase) from Zymomonas mobilis
Settings: Zymomonas enzyme, literature value (Scopes 1985); substrate specificity

Km: 20 to 30 µM
SMILES: O=C1O[C@H](COP(=O)(O)O)[C@@H](O)[C@H](O)[C@H]1O [6-phosphogluconolactone]
